Measured values: ChEMBL document CHEMBL1136543, “3,4-disubstituted azetidinones as selective inhibitors of the cysteine protease cathepsin K. Exploring P2 elements for selectivity” (Bioorg Med Chem Lett, 2003)

How the values were obtained:
Cathepsin B [1] = target: T1, Cathepsin B (Homo sapiens, UniProt P07858); assay: Selectivity ratio between Cathepsin B and Cathepsin K
Cathepsin S [2] = target: T2, Cathepsin S (Homo sapiens, UniProt P25774); assay: Inhibitory activity was measured against Cathepsin S
Target sequence in this assay (P25774 whole entry): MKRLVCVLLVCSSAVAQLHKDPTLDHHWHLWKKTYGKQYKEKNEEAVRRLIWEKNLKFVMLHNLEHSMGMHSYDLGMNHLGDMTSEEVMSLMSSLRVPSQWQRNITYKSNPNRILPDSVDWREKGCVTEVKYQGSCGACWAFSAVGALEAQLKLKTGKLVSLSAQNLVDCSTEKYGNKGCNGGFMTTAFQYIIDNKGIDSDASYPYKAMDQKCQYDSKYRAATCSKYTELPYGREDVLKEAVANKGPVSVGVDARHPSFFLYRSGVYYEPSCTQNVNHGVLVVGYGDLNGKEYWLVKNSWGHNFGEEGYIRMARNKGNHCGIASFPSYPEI

Procathepsin L [3] = target: T3, Procathepsin L (Homo sapiens, UniProt P07711); assay: Selectivity ratio between Cathepsin L and Cathepsin K
Target sequence in this assay (P07711 114-333 limits assumed): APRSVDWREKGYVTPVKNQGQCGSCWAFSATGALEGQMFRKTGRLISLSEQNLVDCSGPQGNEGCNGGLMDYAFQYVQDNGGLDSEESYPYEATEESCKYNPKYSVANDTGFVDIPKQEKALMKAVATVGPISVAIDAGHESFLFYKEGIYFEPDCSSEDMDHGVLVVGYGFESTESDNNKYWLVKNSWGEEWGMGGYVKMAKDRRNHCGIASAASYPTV

Cathepsin K = target: T4, Cathepsin K (Homo sapiens, UniProt P43235); assay: Inhibitory activity was measured against Cathepsin K
T4 sequence (P43235 whole entry): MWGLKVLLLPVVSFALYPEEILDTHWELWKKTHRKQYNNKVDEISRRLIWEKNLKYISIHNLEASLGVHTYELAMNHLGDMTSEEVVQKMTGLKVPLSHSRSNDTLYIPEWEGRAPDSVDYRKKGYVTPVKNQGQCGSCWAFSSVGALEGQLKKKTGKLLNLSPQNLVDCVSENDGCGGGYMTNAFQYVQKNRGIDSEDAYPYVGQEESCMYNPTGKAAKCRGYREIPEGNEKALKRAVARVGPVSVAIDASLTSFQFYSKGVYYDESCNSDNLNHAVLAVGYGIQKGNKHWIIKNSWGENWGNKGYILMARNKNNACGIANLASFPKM

Procathepsin L [4] = target: T3, Procathepsin L; assay: Inhibitory activity was measured against Cathepsin L
Target sequence in this assay (P07711 whole entry): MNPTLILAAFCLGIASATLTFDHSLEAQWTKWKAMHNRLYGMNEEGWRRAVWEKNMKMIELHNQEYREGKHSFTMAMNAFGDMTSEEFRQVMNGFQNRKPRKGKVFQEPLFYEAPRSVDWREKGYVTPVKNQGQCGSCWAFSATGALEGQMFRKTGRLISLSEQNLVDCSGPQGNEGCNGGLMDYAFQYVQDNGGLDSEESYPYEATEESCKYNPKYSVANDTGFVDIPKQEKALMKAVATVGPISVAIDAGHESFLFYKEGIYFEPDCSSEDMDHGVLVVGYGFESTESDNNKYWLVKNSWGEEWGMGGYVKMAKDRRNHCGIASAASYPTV

Cathepsin B [5] = target: T1, Cathepsin B; assay: Inhibitory activity was measured against Cathepsin B
Cathepsin S [6] = target: T2, Cathepsin S; assay: Selectivity ratio between Cathepsin S and Cathepsin K
Target sequence in this assay (P25774 115-331 limits assumed): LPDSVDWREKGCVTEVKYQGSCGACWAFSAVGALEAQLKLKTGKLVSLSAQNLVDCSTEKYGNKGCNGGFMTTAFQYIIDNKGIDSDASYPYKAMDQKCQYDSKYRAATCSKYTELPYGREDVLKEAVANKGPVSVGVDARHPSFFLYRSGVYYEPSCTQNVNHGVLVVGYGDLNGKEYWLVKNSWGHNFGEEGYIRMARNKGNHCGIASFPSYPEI

Ratio (Cathepsin B [1]) | Ki (Cathepsin S [2]) | Ratio (Procathepsin L [3]) | Ki (Cathepsin K) | Ki (Procathepsin L [4]) | Ki (Cathepsin B [5]) | Ratio (Cathepsin S [6]) | SMILES
750 | 0.95 µM | 1190 | 0.0057 µM | 6.8 µM | 4.3 µM | 160 | CC(=O)O[C@@H]1NC(=O)[C@H]1NC(=O)C1(NC(=O)OCc2ccccc2)CCCCC1
> 40 | 53 µM | 4 | 3.6 µM | 16 µM | > 150 µM | 15 | O=C(NC1(C(=O)N[C@@H]2C(=O)N[C@@H]2Oc2ccccc2)CCCCC1)OCc1ccccc1
120 | > 150 µM | > 160 | 0.95 µM | > 150 µM | 120 µM | > 160 | CC(=O)O[C@@H]1NC(=O)[C@H]1NC(=O)C1CCCN1C(=O)OCc1ccccc1 (stereo partly drawn)
24 | 11 µM | > 70 | 2.1 µM | > 150 µM | 52 µM | 5 | CC(=O)O[C@@H]1NC(=O)[C@H]1NC(=O)[C@@H]1CCC[C@@H]1NC(=O)OCc1ccccc1
320 | 20 µM | > 750 | 0.2 µM | > 150 µM | 65 µM | 100 | CC(=O)O[C@@H]1NC(=O)[C@H]1NC(=O)C1CCCCN1C(=O)OCc1ccccc1 (stereo partly drawn)
368 | 33 µM | 9 | 0.38 µM | 3.4 µM | 140 µM | 87 | O=C(NC1(C(=O)N[C@@H]2C(=O)N[C@H]2Oc2ccccc2)CCCCC1)OCc1ccccc1
950 | 0.0092 µM | 40 | 0.0022 µM | 0.088 µM | 2.1 µM | 4 | CC(=O)O[C@@H]1NC(=O)[C@H]1NC(=O)[C@H](CC(C)C)NC(=O)OCc1ccccc1
48 | 28 µM | 870 | 0.16 µM | 140 µM | 7.7 µM | 175 | CC(=O)O[C@@H]1NC(=O)[C@H]1NC(=O)C1(NC(=O)OCc2ccccc2)CCCC1
180 | 0.13 µM | 420 | 0.0088 µM | 3.7 µM | 1.6 µM | 15 | CC(=O)O[C@@H]1NC(=O)[C@H]1NC(=O)[C@@H]1CCCC[C@@H]1NC(=O)OCc1ccccc1
